Assay results: ChEMBL document CHEMBL1287690, “Mycoepoxydiene, a fungal polyketide, induces cell cycle arrest at the G2/M phase and apoptosis in HeLa cells” (Bioorg Med Chem Lett, 2010)
Activity calls are given as the source filed them. No cut-off for these calls is given here.

Experiments:
KB = test: Cytotoxicity against human KB cells by MTT assay; format: functional, cell-based
AGS = test: Growth inhibition in human AGS cells after 72 hrs by MTT assay; format: functional, cell-based
HT-29 = test: Growth inhibition in human HT-29 cells after 72 hrs by MTT assay; format: functional, cell-based
DU-145 = test: Growth inhibition in human DU145 cells after 72 hrs by MTT assay; format: functional, cell-based
MDA-MB-435 = test: Growth inhibition in human MDA-MB-435 cells after 72 hrs by MTT assay; format: functional, cell-based
MDA-MB-231 = test: Growth inhibition in human MDA-MB-231 cells after 72 hrs by MTT assay; format: functional, cell-based
MCF7 = test: Growth inhibition in human MCF7 cells after 72 hrs by MTT assay; format: functional, cell-based
U2OS = test: Growth inhibition in human U2OS cells after 72 hrs by MTT assay; format: functional, cell-based
HeLa [1] = test: Growth inhibition in human HeLa cells after 72 hrs by MTT assay; format: functional, cell-based
OVCAR-3 = test: Growth inhibition in human OVCAR-3 cells after 72 hrs by MTT assay; format: functional, cell-based
A549 = test: Growth inhibition in human A549 cells after 72 hrs by MTT assay; format: functional, cell-based
HeLa [2] = test: Cytotoxicity against human HeLa cells after 72 hrs by MTT assay; format: functional, cell-based
HeLa [3] = test: Induction of apoptosis in human HeLa cells assessed as increase of dead cells after 24 hrs using propidium iodide staining by flow cytometry; format: functional, cell-based
HeLa [4] = test: Induction of apoptosis in human HeLa cells assessed as increase of dead cells at 11 uM using propidium iodide staining by flow cytometry; format: functional, cell-based; conditions: TDE = time-dependent effect
HeLa [5] = test: Induction of apoptosis in human HeLa cells assessed as increase of dead cells at 12 uM using propidium iodide staining by flow cytometry; format: functional, cell-based; conditions: TDE = time-dependent effect
HeLa [6] = test: Induction of apoptosis in human HeLa cells assessed as morphological changes at 14 to 21 uM after 9 hrs by phase contrast microscopic analysis; format: functional, cell-based
HeLa [7] = test: Induction of apoptosis in human HeLa cells assessed as increase in actin stress fiber formation across cell body after 12 hrs by phase contrast microscopic analysis; format: functional, cell-based; conditions: TDE = time-dependent effect
HeLa [8] = test: Induction of apoptosis in human HeLa cells assessed as increase in actin stress fiber formation across cell body at 14 to 21 uM by phase contrast microscopic analysis; format: functional, cell-based; conditions: TDE = time-dependent effect
HeLa [9] = test: Cell cycle arrest in human HeLa cells assessed as accumulation at G2/M phase at 14 uM after 12 hrs using propidium iodide staining by flow cytometry relative to control; format: functional
HeLa [10] = test: Induction of apoptosis in human HeLa cells assessed as reduction in expression of Cdc2 at 14 to 21 uM by immunoblot assay; format: functional, cell-based; conditions: TDE = time-dependent effect
HeLa [11] = test: Induction of apoptosis in human HeLa cells assessed as reduction in expression of Cdc2 after 12 hrs by immunoblot assay; format: functional, cell-based
HeLa [12] = test: Induction of apoptosis in human HeLa cells assessed as reduction in expression of p34 after 12 hrs by immunoblot assay; format: functional, cell-based
HeLa [13] = test: Induction of apoptosis in human HeLa cells assessed as reduction in expression of GADD45alpha after 12 hrs by immunoblot assay; format: functional, cell-based
HeLa [14] = test: Induction of apoptosis in human HeLa cells assessed as reduction in expression of WEE1 after 12 hrs by immunoblot assay; format: functional, cell-based
HeLa [15] = test: Induction of apoptosis in human HeLa cells assessed as reduction in expression of Myt1 after 12 hrs by immunoblot assay; format: functional, cell-based
HeLa [16] = test: Induction of apoptosis in human HeLa cells assessed as reduction in expression of chk1 after 12 hrs by immunoblot assay; format: functional, cell-based
HeLa [17] = test: Induction of apoptosis in human HeLa cells assessed as reduction in expression of chk2 after 12 hrs by immunoblot assay; format: functional, cell-based
HeLa [18] = test: Induction of apoptosis in human HeLa cells assessed as increase in production of p21 at 14 to 21 uM after 12 hrs by immunoblot assay; format: functional, cell-based
HeLa [19] = test: Induction of apoptosis in human HeLa cells assessed as increase in production of cyclin B1 at 14 to 21 uM after 12 hrs by immunoblot assay; format: functional, cell-based
HeLa [20] = test: Induction of apoptosis in human HeLa cells assessed as increase in cytochrome C in cytoplasm at 21 uM after 20 hrs by Western blotting; format: functional, cell-based
[21] = biological target: c-Jun N-terminal kinase, JNK (Homo sapiens) (UniProt P45983+P53779+P45984); test: Induction of JNK phosphorylation at Thr183/Tyr185 in human HeLa cells at 21 uM after 30 mins by Western blotting; format: cell-based
[22] = biological target: MAP kinase p38 (Homo sapiens) (UniProt O15264+Q15759+Q16539+P53778); test: Induction of p38 phosphorylation at Thr180/Tyr182 in human HeLa cells assessed at 21 uM after 30 mins by Western blotting; format: cell-based
HeLa [23] = test: Induction of apoptosis in human HeLa cells assessed cell death up to 20 uM after 48 hrs using propidium iodide staining by flow cytometry in presence of JNK inhibitor 2 treated 1 hr before compound challenge; format: functional, cell-based
HeLa [24] = test: Induction of apoptosis in human HeLa cells assessed cell death up to 20 uM after 48 hrs using propidium iodide staining by flow cytometry in presence of SB-203580 treated 1 hr before compound challenge; format: functional, cell-based
HeLa [25] = test: Induction of apoptosis in human HeLa cells assessed as increase in cleavage fragments of p17 and p12 at 21 uM after 12 to 28 hrs by Western blotting; format: functional, cell-based
HeLa [26] = test: Induction of apoptosis in human HeLa cells assessed as increase in caspase-3 cleavage at 21 uM after 12 to 28 hrs by Western blotting in presence of z-VAD-fmk; format: functional, cell-based
HeLa [27] = test: Induction of apoptosis in human HeLa cells assessed as cell death in presence of 25 uM of […] z-VAD-fmk; format: functional, cell-based
HeLa [28] = test: Induction of apoptosis in human HeLa cells assessed as disruption of tubulin cytoskeleton at 14 to 21 uM by phase contrast microscopic analysis; format: functional, cell-based
HeLa [29] = test: Cell cycle arrest in human HeLa cells assessed as accumulation at G2/M phase at 21 uM after 12 hrs using propidium iodide staining by flow cytometry relative to control; format: functional
HeLa [30] = test: Cell cycle arrest in human HeLa cells assessed as accumulation at sub-G1 phase at 14 uM after 36 hrs using propidium iodide staining by flow cytometry relative to control; format: functional
HeLa [31] = test: Cell cycle arrest in human HeLa cells assessed as accumulation at sub-G1 phase at 21 uM after 36 hrs using propidium iodide staining by flow cytometry relative to control; format: functional
HeLa [32] = test: Cell cycle arrest in human HeLa cells assessed as accumulation at G2/M phase at 14 uM after 36 hrs using propidium iodide staining by flow cytometry relative to control; format: functional
HeLa [33] = test: Cell cycle arrest in human HeLa cells assessed as accumulation at G2/M phase at 21 uM after 36 hrs using propidium iodide staining by flow cytometry relative to control; format: functional
HeLa [34] = test: Induction of apoptosis in human HeLa cells assessed as reduction in expression of p34 at 14 to 21 uM by immunoblot assay; format: functional, cell-based; conditions: TDE = time-dependent effect
HeLa [35] = test: Induction of apoptosis in human HeLa cells assessed as reduction in expression of GADD45alpha at 14 to 21 uM by immunoblot assay; format: functional, cell-based; conditions: TDE = time-dependent effect
HeLa [36] = test: Induction of apoptosis in human HeLa cells assessed as reduction in expression of WEE1 at 14 to 21 uM by immunoblot assay; format: functional, cell-based; conditions: TDE = time-dependent effect
HeLa [37] = test: Induction of apoptosis in human HeLa cells assessed as reduction in expression of Myt1 at 14 to 21 uM by immunoblot assay; format: functional, cell-based; conditions: TDE = time-dependent effect
HeLa [38] = test: Induction of apoptosis in human HeLa cells assessed as reduction in expression of chk1 at 14 to 21 uM by immunoblot assay; format: functional, cell-based; conditions: TDE = time-dependent effect
HeLa [39] = test: Induction of apoptosis in human HeLa cells assessed as reduction in expression of chk2 at 14 to 21 uM by immunoblot assay; format: functional, cell-based; conditions: TDE = time-dependent effect
HeLa [40] = test: Induction of JNK expression in human HeLa cells at 21 uM after 8 hrs by Western blotting; format: functional, cell-based
HeLa [41] = test: Induction of p38 expression in human HeLa cells at 21 uM after 8 hrs by Western blotting; format: functional, cell-based
HeLa [42] = test: Induction of apoptosis in human HeLa cells assessed as increase in PARP cleavage at 21 uM after 12 to 28 hrs by Western blotting; format: functional, cell-based

`CC(=O)O[C@H]1C=CC(=O)O[C@H]1[C@@H]1[C@H](C)[C@H]2C=CC=C[C@@H]1O2` [MYCOEPOXYDIENE] was tested, and the IC50 (KB) was < 21.5 µM, the “growth inhibition (GI)” value (AGS) was “Active” and the “growth inhibition (GI)” value (HT-29) was “Active”. The “growth inhibition (GI)” value (DU-145) was “Active”, the “growth inhibition (GI)” value (MDA-MB-435) was “Active” and the “growth inhibition (GI)” value (MDA-MB-231) was “Active”. The “growth inhibition (GI)” value (MCF7) was “Active”, the “growth inhibition (GI)” value (U2OS) was “Active” and the “growth inhibition (GI)” value (HeLa [1]) was “Active”. For the same compound, the “growth inhibition (GI)” value (OVCAR-3) was “Active”, the “growth inhibition (GI)” value (A549) was “Active” and the IC50 (HeLa [2]) was 16.8 µM. For the same compound, the Activity (HeLa [3]) was “Dose-dependent effect”, the Activity (HeLa [4]) was “tde” and the Activity (HeLa [5]) was “tde”. For the same compound, the Activity (HeLa [6]) was “Active”, the Activity (HeLa [7]) was “tde” and the Activity (HeLa [8]) was “tde”. The Activity (HeLa [9]) was 40.9%, the Activity (HeLa [10]) was “tde” and the Activity (HeLa [11]) was “Dose-dependent effect”. The Activity (HeLa [12]) was “Dose-dependent effect”, the Activity (HeLa [13]) was “Dose-dependent effect” and the Activity (HeLa [14]) was “Dose-dependent effect”. The Activity (HeLa [15]) was “Dose-dependent effect”, the Activity (HeLa [16]) was “Dose-dependent effect” and the Activity (HeLa [17]) was “Dose-dependent effect”. For the same compound, the Activity (HeLa [18]) was “Active”, the Activity (HeLa [19]) was “Active” and the Activity (HeLa [20]) was “Active”. The Activity [21] was “Active”, the Activity [22] was “Active” and the Activity (HeLa [23]) was “Active”. For the same compound, the Activity (HeLa [24]) was “Active”, the Activity (HeLa [25]) was “Active” and the Activity (HeLa [26]) was “inactive”. For the same compound, the Activity (HeLa [27]) was “inactive”, the Activity (HeLa [28]) was “Dose-dependent effect” and the Activity (HeLa [29]) was 47.5%. The Activity (HeLa [30]) was 4.8%, the Activity (HeLa [31]) was 23.3% and the Activity (HeLa [32]) was 31.4%. The Activity (HeLa [33]) was 31.3%, the Activity (HeLa [34]) was “tde” and the Activity (HeLa [35]) was “tde”. The Activity (HeLa [36]) was “tde”, the Activity (HeLa [37]) was “tde” and the Activity (HeLa [38]) was “tde”. For the same compound, the Activity (HeLa [39]) was “tde”, the Activity (HeLa [40]) was “inactive” and the Activity (HeLa [41]) was “inactive”. For the same compound, the Activity (HeLa [42]) was “Active”.
